pIC50: −log10 of the molar value.
Tested on: 556581-035-R-J1-PDC complex spheroid growth
Experiment: Anticancer human tumor 556581-035-R-J1-PDC patient-derived ovarian carcinoma cell line growth inhibition [AhR]
Details: for pIC50: curve of first compound; for viability, T/C: stronger effect = lower value
In short: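 Complex tumor spheroids co-cultured with HUVEC and human MSC stroma; AhR antagonists tested in combination with standard-of-care and investigational agents. Top concentration at or near clinical Cmax (else 10 microM), half-log dilutions; growth expressed as percent test/control.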

[1] = second compound 0.1 µM, first compound 0.0316 µM
[2] = second compound 0.1 µM, first compound 0.1 µM
[3] = second compound 0.316 µM, first compound 0.0316 µM
[4] = second compound 0.316 µM, first compound 0.1 µM
[5] = second compound 1 µM, first compound 0.0316 µM
[6] = second compound 1 µM, first compound 0.1 µM
[7] = second compound 3.16 µM, first compound 0.0316 µM
[8] = second compound 3.16 µM, first compound 0.1 µM
[9] = second compound 10 µM, first compound 0.0316 µM
[10] = second compound 10 µM, first compound 0.1 µM
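Wherever viability, T/C is given: compound exposure lasted 7 days; 100% = DMSO vehicle control growth.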

## Cn1ncnc1C1c2n[nH]c(=O)c3cc(F)cc(c23)NC1c1ccc(F)cc1 (stereo not given) + CC(CO)NC(=O)c1cc(-c2ccc(Cl)cc2)nn(-c2cnn(C)c2)c1=O
Second compound 0.1 µM
  pIC50: < 7.00
Second compound 0.316 µM
  pIC50: < 7.00
Second compound 1 µM
  pIC50: < 7.00
Second compound 3.16 µM
  pIC50: < 7.00
Second compound 10 µM
  pIC50: < 7.00
Second compound 0.1 µM, first compound 0.000316 µM
  viability, T/C: 109%
Second compound 0.1 µM, first compound 0.001 µM
  viability, T/C: 104%
Second compound 0.1 µM, first compound 0.00316 µM
  viability, T/C: 101%
Second compound 0.1 µM, first compound 0.01 µM
  viability, T/C: 103%
[1]
  viability, T/C: 97.3%
[2]
  viability, T/C: 99.7%
Second compound 0.316 µM, first compound 0.000316 µM
  viability, T/C: 97%
Second compound 0.316 µM, first compound 0.001 µM
  viability, T/C: 111%
Second compound 0.316 µM, first compound 0.00316 µM
  viability, T/C: 137%
Second compound 0.316 µM, first compound 0.01 µM
  viability, T/C: 113%
[3]
  viability, T/C: 99.3%
[4]
  viability, T/C: 93.4%
Second compound 1 µM, first compound 0.000316 µM
  viability, T/C: 112%
Second compound 1 µM, first compound 0.001 µM
  viability, T/C: 105%
Second compound 1 µM, first compound 0.00316 µM
  viability, T/C: 113%
Second compound 1 µM, first compound 0.01 µM
  viability, T/C: 105%
[5]
  viability, T/C: 98.7%
[6]
  viability, T/C: 99.6%
Second compound 3.16 µM, first compound 0.000316 µM
  viability, T/C: 114%
Second compound 3.16 µM, first compound 0.001 µM
  viability, T/C: 110%
Second compound 3.16 µM, first compound 0.00316 µM
  viability, T/C: 105%
Second compound 3.16 µM, first compound 0.01 µM
  viability, T/C: 93.3%
[7]
  viability, T/C: 101%
[8]
  viability, T/C: 89.6%
Second compound 10 µM, first compound 0.000316 µM
  viability, T/C: 105%
Second compound 10 µM, first compound 0.001 µM
  viability, T/C: 110%
Second compound 10 µM, first compound 0.00316 µM
  viability, T/C: 110%
Second compound 10 µM, first compound 0.01 µM
  viability, T/C: 112%
[9]
  viability, T/C: 92.6%
[10]
  viability, T/C: 97.2%

## NS(=O)(=O)OCC1CC(n2ccc3c(NC4CCc5ccccc54)ncnc32)CC1O (stereo not given) + CC(CO)NC(=O)c1cc(-c2ccc(Cl)cc2)nn(-c2cnn(C)c2)c1=O
Second compound 0.1 µM
  pIC50: < 5.00
Second compound 0.316 µM
  pIC50: < 5.00
Second compound 1 µM
  pIC50: < 5.00
Second compound 3.16 µM
  pIC50: < 5.00
Second compound 10 µM
  pIC50: < 5.00
[1]
  viability, T/C: 98.2%
[2]
  viability, T/C: 108%
Second compound 0.1 µM, first compound 0.316 µM
  viability, T/C: 112%
Second compound 0.1 µM, first compound 1 µM
  viability, T/C: 107%
Second compound 0.1 µM, first compound 3.16 µM
  viability, T/C: 107%
Second compound 0.1 µM, first compound 10 µM
  viability, T/C: 86.9%
[3]
  viability, T/C: 107%
[4]
  viability, T/C: 121%
Second compound 0.316 µM, first compound 0.316 µM
  viability, T/C: 97.1%
Second compound 0.316 µM, first compound 1 µM
  viability, T/C: 104%
Second compound 0.316 µM, first compound 3.16 µM
  viability, T/C: 109%
Second compound 0.316 µM, first compound 10 µM
  viability, T/C: 78.9%
[5]
  viability, T/C: 106%
[6]
  viability, T/C: 118%
Second compound 1 µM, first compound 0.316 µM
  viability, T/C: 104%
Second compound 1 µM, first compound 1 µM
  viability, T/C: 111%
Second compound 1 µM, first compound 3.16 µM
  viability, T/C: 88.3%
Second compound 1 µM, first compound 10 µM
  viability, T/C: 86.7%
[7]
  viability, T/C: 101%
[8]
  viability, T/C: 111%
Second compound 3.16 µM, first compound 0.316 µM
  viability, T/C: 103%
Second compound 3.16 µM, first compound 1 µM
  viability, T/C: 106%
Second compound 3.16 µM, first compound 3.16 µM
  viability, T/C: 99.8%
Second compound 3.16 µM, first compound 10 µM
  viability, T/C: 89.5%
[9]
  viability, T/C: 95.8%
[10]
  viability, T/C: 109%
Second compound 10 µM, first compound 0.316 µM
  viability, T/C: 115%
Second compound 10 µM, first compound 1 µM
  viability, T/C: 109%
Second compound 10 µM, first compound 3.16 µM
  viability, T/C: 121%
Second compound 10 µM, first compound 10 µM
  viability, T/C: 96.7%

From PubChem BioAssay AID1918999 (Molecular Pharmacology Branch, DTP, NCI, 2023)
